Paper PMC9543379, “Dihydroxy‐Acid Dehydratases From Pathogenic Bacteria: Emerging Drug Targets to Combat Antibiotic Resistance” (Chemistry (Weinheim an Der Bergstrasse, Germany), 2022)

Assays:
Assay type in all cases: biochemical
[1] = target: T1, SaDHAD (dihydroxy-acid dehydratase) (Staphylococcus aureus, UniProt Q2FWK7); test: DNPH colorimetric endpoint assay with DHIV, 30-min pre-incubation
T1 construct: gene ilvD; hexa-histidine tag at the N-terminal, pET-28a

[2] = target: T2, CjDHAD (dihydroxy-acid dehydratase) (Campylobacter jejuni, UniProt Q9PJ98); test: as above
T2 construct: gene ilvD; hexa-histidine tag at the N-terminal, pET-28a

[3] = target: T2, CjDHAD (dihydroxy-acid dehydratase); test: DNPH colorimetric endpoint assay with DHIV, no pre-incubation
[4] = target: T1, SaDHAD (dihydroxy-acid dehydratase); test: as above

T2 sequence (Q9PJ98 whole entry): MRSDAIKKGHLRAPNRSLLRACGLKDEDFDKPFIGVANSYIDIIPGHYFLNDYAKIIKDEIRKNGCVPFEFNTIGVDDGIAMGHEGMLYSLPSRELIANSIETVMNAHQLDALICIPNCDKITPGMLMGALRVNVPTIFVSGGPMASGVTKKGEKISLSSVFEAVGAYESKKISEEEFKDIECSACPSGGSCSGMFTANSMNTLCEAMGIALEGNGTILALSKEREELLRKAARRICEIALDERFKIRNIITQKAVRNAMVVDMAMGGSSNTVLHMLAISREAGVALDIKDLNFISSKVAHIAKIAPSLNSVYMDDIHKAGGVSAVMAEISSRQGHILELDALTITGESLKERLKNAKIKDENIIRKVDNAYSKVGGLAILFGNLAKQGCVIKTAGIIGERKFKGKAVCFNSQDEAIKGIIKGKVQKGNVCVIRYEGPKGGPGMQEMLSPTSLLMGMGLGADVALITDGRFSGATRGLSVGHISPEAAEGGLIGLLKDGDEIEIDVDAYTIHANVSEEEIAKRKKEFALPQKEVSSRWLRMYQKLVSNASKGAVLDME
T1 sequence (Q2FWK7 whole entry): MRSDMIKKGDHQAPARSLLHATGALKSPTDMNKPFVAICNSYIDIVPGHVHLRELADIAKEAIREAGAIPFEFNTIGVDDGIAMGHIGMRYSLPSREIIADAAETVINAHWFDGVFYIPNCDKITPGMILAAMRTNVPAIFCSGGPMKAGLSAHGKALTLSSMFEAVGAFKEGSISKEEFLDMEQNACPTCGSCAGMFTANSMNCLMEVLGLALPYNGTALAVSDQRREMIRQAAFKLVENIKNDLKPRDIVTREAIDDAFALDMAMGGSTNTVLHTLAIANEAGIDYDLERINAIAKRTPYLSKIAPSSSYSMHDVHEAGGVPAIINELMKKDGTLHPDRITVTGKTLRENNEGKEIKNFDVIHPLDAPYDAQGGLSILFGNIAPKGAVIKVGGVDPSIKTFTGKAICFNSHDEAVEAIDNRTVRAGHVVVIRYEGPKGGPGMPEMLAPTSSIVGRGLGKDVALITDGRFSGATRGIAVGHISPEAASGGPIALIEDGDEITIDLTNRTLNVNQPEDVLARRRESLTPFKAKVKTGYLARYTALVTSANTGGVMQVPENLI

SMILES: CC(C)N(O)C(=O)C(=O)O [IpOHA]
- Ki [1]: 7.8 µM
- Ki [2]: 32.9 µM

SMILES: CC(C)=C1CC[C@]23CO[C@H](C2)[C@@](O)(C(=O)O)CC[C@@H]13 [aspterric acid]
- Ki [3]: 35.1 µM
- Ki [4]: 51.6 µM
